These results are taken from patent publication US9012431B2, “Boron-containing small molecules as anti-inflammatory agents” (Anacor Pharmaceuticals, Inc., priority 2008, dated 2015).

The target of one series is hERG-channel (Homo sapiens, UniProt Q12809). The series can be described thus: hERG-channel block. The series is classed as biochemical. The following applies: in vitro screening.
Series [1] deals with IL-2 secretion from PBMCs. Kind of series: IL-2 secretion from PBMCs stimulated with PHA. In kind it is cell-based, human. The settings on record: Homo sapiens, PBMC; PBMCs stimulated with PHA; read-out: IL-2 secretion IC50. The source says: (§1) Compounds were screened by a biochemical assay against PDE4 enzyme and cell-based cytokine release assays using PBMCs stimulated by LPS or phytohemagglutinin (PHA).

A short description of series [2]: Dermal application on the Göttingen minipig (plasma level, dermal irritation). The series is classed as in vivo. The settings on record: Göttingen, minipig, plasma, topical, 5 % ointment or cream over 15% body surface area; dermal 5% C27 ointment or cream over 15% body surface area; LLOQ=0.01 μg/ml; read-out: plasma levels of the compound.
The next series has as its system Göttingen minipig. The description is as above. The series is classed as in vivo. The settings on record: 5% C27 ointment or cream, after 24 hours of exposure.
The subject of series [3] is CD-1 (Crl.) derived male mice. Kind of series: Phorbol Ester Induced Mouse Ear Edema Model. The series is classed as in vivo. The settings on record: topical, 6 h, vehicle not given, ear swelling 6 hours after PMA. The procedure, abridged: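 Test compounds in acetone:ethanol 1:1 were applied topically to both ears 30 min before and 15 min after PMA challenge; dexamethasone positive control followed the same schedule. Ear thickness was measured by micrometer 6 h after PMA, and percent inhibition was calculated from ear-thickness increase versus vehicle controls.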

Series [4] concerns T1, phosphodiesterase 4 (PDE4) enzyme derived from human U937 cells.
T1 construct: PDE4 IC50; other: biochemical assay, PDE4 enzyme derived from human U937 cells; other: PDE4 in human U937 cells
Kind of series: PDE4 enzyme activity (enzyme derived from human U937 cells). The series is classed as biochemical. The settings on record: biochemical assay, PDE4 enzyme derived from human U937 cells; read-out: PDE4 IC50.
From the text: The structure-activity relationships of novel boron-containing anti-inflammatory agents was investigated.
as §1

Series [5] deals with TNF-α secretion from peripheral blood mononuclear cells (PBMCs). The series can be described thus: TNF-α secretion from PBMCs stimulated by LPS. In kind it is cell-based, human. The following applies: Homo sapiens, PBMC; PBMCs stimulated by LPS; read-out: TNF-α secretion IC50.
From the text: as §1

A further series has as its system HepG2. Kind of series: Cytotoxicity against HepG2 cell line. In kind it is cell-based.
The next series is described as follows: in vivo. The following applies: shrew.
For the next series, the system named is p450 enzyme. The series can be described thus: p450 enzyme inhibition screen. The following applies: in vitro screening. The series is classed as in vitro ADME.
For the next series, the system named is L929. The series can be described thus: Cytotoxicity against L929 cell line. In kind it is cell-based.
For series [6], the system named is oxazolone induced ear swelling. Kind of series: Oxazolone induced ear swelling (allergic contact dermatitis model). In kind it is in vivo. The following applies: topical.
The nature of series [7]: Pharmacokinetic analysis in the rat. In kind it is in vivo.
For a further series, the system named is BALB/c male mice. Kind of series: Oxazolone Induced Mouse Ear Edema Model. In kind it is in vivo. The settings on record: topical, 24 h. The procedure, abridged: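 BALB/c males (n=5) are sensitized on the abdomen with 1.5% oxazolone and challenged on the right ear 7 days later with 1% oxazolone. Compound in acetone:ethanol 1:1 is applied topically 30 min before and 15 min after challenge.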

The test system of another series is PMA induced ear edema. Kind of series: PMA induced ear edema (acute skin irritation model). The series is classed as in vivo.
In series [8] the test system is IFN-γ secretion from PBMCs. The series can be described thus: IFN-γ secretion from PBMCs stimulated with PHA. The following applies: Homo sapiens, PBMC; PBMCs stimulated with PHA; read-out: IFN-γ secretion IC50. In kind it is cell-based, human.
From the text: as §1

Sequence of hERG-channel (Q12809 whole entry): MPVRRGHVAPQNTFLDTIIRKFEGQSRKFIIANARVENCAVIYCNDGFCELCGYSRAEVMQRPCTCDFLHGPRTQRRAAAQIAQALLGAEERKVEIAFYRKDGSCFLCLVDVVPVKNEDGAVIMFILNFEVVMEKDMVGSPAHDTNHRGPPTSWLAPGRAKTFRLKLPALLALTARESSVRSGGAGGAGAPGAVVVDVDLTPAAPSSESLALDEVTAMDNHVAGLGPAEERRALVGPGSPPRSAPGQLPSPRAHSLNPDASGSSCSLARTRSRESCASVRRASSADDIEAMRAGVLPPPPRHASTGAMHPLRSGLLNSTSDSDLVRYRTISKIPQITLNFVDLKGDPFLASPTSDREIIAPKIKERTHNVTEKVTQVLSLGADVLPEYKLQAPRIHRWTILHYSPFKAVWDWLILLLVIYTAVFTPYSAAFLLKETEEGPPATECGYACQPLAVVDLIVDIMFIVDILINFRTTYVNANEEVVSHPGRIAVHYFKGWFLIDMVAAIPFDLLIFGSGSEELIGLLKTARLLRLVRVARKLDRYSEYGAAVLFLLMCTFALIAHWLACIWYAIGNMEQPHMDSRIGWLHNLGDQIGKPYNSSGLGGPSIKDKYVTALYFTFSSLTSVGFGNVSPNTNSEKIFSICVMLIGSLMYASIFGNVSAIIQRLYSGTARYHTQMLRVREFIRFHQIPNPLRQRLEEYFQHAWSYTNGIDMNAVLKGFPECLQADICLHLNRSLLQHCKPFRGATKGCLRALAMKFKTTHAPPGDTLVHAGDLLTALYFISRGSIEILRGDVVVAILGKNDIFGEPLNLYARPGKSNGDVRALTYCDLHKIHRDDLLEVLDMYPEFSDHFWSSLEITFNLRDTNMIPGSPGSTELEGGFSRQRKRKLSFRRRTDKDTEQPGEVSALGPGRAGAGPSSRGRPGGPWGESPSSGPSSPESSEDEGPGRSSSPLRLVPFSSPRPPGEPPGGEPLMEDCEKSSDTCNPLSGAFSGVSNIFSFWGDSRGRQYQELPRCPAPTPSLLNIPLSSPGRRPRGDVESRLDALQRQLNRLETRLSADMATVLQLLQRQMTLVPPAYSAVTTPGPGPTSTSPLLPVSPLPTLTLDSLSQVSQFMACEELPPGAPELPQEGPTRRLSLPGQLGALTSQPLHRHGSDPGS

Usually IC50 stands for the concentration at which inhibition is half-maximal. The term inhibition in vivo denotes the change of the read-out against control, counted positive when it falls. Higher therefore signals a strong effect. By Cmax is commonly meant the maximum level reached in the sampled fluid or tissue. A word on the bioavailability: it is dose-corrected exposure relative to a reference, in per cent. A lower bioavailability goes with little systemic uptake. In the case of `N#Cc1ccc(Oc2ccc3c(c2)COB3O)cc1C#N` [C27, 5-(3,4-Dicyanophenoxy)-1,3-dihydro-1-hydroxy-2,1-benzoxaborole], the hERG inhibition result at hERG-channel was “no significant”. The IC50 in series [1] is 180 nM; in series [4], 60 nM; in series [5], 160 nM; in series [8] it was 220 nM. Also, the concentration at 24 h in [2] was below 10 ng/mL. Also, the dermal irritation entry in the series with Göttingen minipig is on record as “no dermal irritation”. Besides, the inhibition in vivo at 1 mg in series [3] (1 mg/ear × 2 topical) lay in the range of 60 to 90%. Further, the inhibition in vivo at 3 mg is 60 to 90% in series [3] (3 mg/ear × 2 topical) and 40 to 60% in the series with BALB/c male mice. The cytotoxicity with HepG2 and with L929 was above 100 micro M throughout. In addition, the concentration in the series “in vivo” peaked (Cmax) at 12400 ng/mL. The p450 enzyme inhibition result in the series with p450 enzyme is recorded as “no significant”. In addition, the “inhibition of oxazolone induced ear swelling” value in series [6] was “significantly inhibits”. For the same molecule, the “mean plasma residence time” value in series [7] (intravenous dosing at 20 mg/kg) came out at 0.64 h. In series [7] (plasma, oral dosing at 100 mg/kg), this molecule displayed a bioavailability of 7%. Moreover, the “inhibition of PMA induced ear edema” value in the series with PMA induced ear edema (acetone/ethanol vehicle, 5% C27, 15% dexamethasone, p<0.01) is reported as 82%. Moreover, the “lowest active concentration in PMA ear edema model” value with PMA induced ear edema (ointment vehicle) is 0.01%.
